{"source": "patent US10408783B2", "about": "“Electrochemical methods and compounds for the detection of enzymes” (GEORGIA STATE UNIVERSITY RESEARCH FOUNDATION, INC., priority 2014, dated 2019)", "key": {"[1]": {"tested_on": "A/Wisconsin/629-D02452/2009 (H1N1)", "assay": "Electrochemical assay using the printed electrodes", "type": "biochemical, Influenza A virus", "details": "100 μL virus + 100 μL PBS buffer with SG1, 1 hour, 37° C.; 20 μL tested"}, "[2]": {"tested_on": "A/New York/18/2009 (H1N1)", "assay": "Electrochemical assay using the printed electrodes", "type": "biochemical, Influenza A virus", "details": "100 μL virus + 100 μL PBS buffer with SG1, 1 hour, 37° C.; 20 μL tested"}, "[3]": {"tested_on": "A/Victoria/361/2011 (H3N2)", "assay": "Electrochemical assay using the printed electrodes", "type": "biochemical, Influenza A virus", "details": "100 μL virus + 100 μL PBS buffer with SG1, 1 hour, 37° C.; 20 μL tested"}, "[4]": {"assay": "Electrochemical assay using the printed electrodes, SG1 without virus", "details": "No virus + SG1 (negative control)"}, "[5]": {"tested_on": "A/Uruguay/716/2007 (H3N2)", "assay": "Electrochemical assay using the printed electrodes", "type": "biochemical, Influenza A virus", "details": "100 μL virus + 100 μL PBS buffer with SG1, 1 hour, 37° C.; 20 μL tested"}, "[6]": {"tested_on": "A/Solomon Islands/3/2006 (H1N1)", "assay": "Electrochemical assay using the printed electrodes", "type": "biochemical, Influenza A virus", "details": "100 μL virus + 100 μL PBS buffer with SG1, 1 hour, 37° C.; 20 μL tested"}, "A/Sydney/5/1997 (H3N2)": {"tested_on": "A/Sydney/5/1997 (H3N2)", "assay": "Electrochemical assay using the printed electrodes", "type": "biochemical, Influenza A virus", "details": "100 μL virus + 100 μL PBS buffer with SG1, 1 hour, 37° C.; 20 μL tested"}, "[7]": {"tested_on": "A/Beijing/262/1995 (H1N1)", "assay": "Electrochemical assay using the printed electrodes", "type": "biochemical, Influenza A virus", "details": "100 μL virus + 100 μL PBS buffer with SG1, 1 hour, 37° C.; 20 μL tested"}, "A/HongKong/8/1968 (H3N2)": {"tested_on": "A/HongKong/8/1968 (H3N2)", "assay": "Electrochemical assay using the printed electrodes", "type": "biochemical, Influenza A virus", "details": "100 μL virus + 100 μL PBS buffer with SG1, 1 hour, 37° C.; 20 μL tested"}, "H3N2 A/Aichi/2/1968": {"tested_on": "H3N2 A/Aichi/2/1968", "assay": "Electrochemical assay, 3 electrode system: SG1 cleavage and drug susceptibility", "type": "biochemical, Influenza A virus", "details": "100 μL UV inactivated virus, 1 hour"}, "[8]": {"tested_on": "bacterial NA (BNA) from Clostridium perfringens", "type": "biochemical", "details": "bacterial NA, no antiviral"}, "[9]": {"assay": "Electrochemical assay, 3 electrode system: SG1 in PBS buffer without enzyme", "details": "SG1 0.5 mM in PBS buffer, no NA or virus"}, "[10]": {"tested_on": "A/Wilson-Smith/1933 (H1N1)", "assay": "Electrochemical assay using the printed electrodes", "type": "biochemical, Influenza A virus", "details": "100 μL virus + 100 μL PBS buffer with SG1, 1 hour, 37° C.; 20 μL tested"}, "H3N2 A/HongKong/8/68": {"tested_on": "H3N2 A/HongKong/8/68", "assay": "Electrochemical assay, 3 electrode system: SG1 cleavage and drug susceptibility", "type": "biochemical, Influenza A virus", "details": "100 μL UV inactivated virus, 1 hour"}, "[11]": {"tested_on": "membrane free soluble N1 NA (strain H5N1 A/Anhui/1/2005)", "type": "biochemical, influenza virus", "details": "SG1 0.5 mM, 2 hours, 23° C., PBS buffer"}, "[12]": {"tested_on": "A/Nanching/933/1995 (H3N2)", "assay": "Electrochemical assay using the printed electrodes", "type": "biochemical, Influenza A virus", "details": "100 μL virus + 100 μL PBS buffer with SG1, 1 hour, 37° C.; 20 μL tested"}, "H1N1 A/Brisbane/59/2007": {"tested_on": "H1N1 A/Brisbane/59/2007", "assay": "Electrochemical assay, 3 electrode system: SG1 cleavage and drug susceptibility", "type": "biochemical, Influenza A virus"}, "[13]": {"tested_on": "A/Brownsville/31H/2009 (H1N1)", "assay": "Electrochemical assay using the printed electrodes", "type": "biochemical, Influenza A virus", "details": "100 μL virus + 100 μL PBS buffer with SG1, 1 hour, 37° C.; 20 μL tested"}, "[14]": {"tested_on": "A/PuertoRico/8/1934 (H1N1)", "assay": "Electrochemical assay using the printed electrodes", "type": "biochemical, Influenza A virus", "details": "100 μL virus + 100 μL PBS buffer with SG1, 1 hour, 37° C.; 20 μL tested"}, "[15]": {"tested_on": "A/California/07/2009 (H1N1)", "assay": "Electrochemical assay using the printed electrodes", "type": "biochemical, Influenza A virus", "details": "100 μL virus + 100 μL PBS buffer with SG1, 1 hour, 37° C.; 20 μL tested"}, "A/Aichi/2/1968 (H1N1)": {"tested_on": "A/Aichi/2/1968 (H1N1)", "assay": "Electrochemical assay using the printed electrodes", "type": "biochemical, Influenza A virus"}, "[16]": {"tested_on": "A/Brisbane/59/2007 (H1N1)", "assay": "Electrochemical assay using the printed electrodes", "type": "biochemical, Influenza A virus", "details": "100 μL virus + 100 μL PBS buffer with SG1, 1 hour, 37° C.; 20 μL tested"}, "[17]": {"tested_on": "A/San Diego/1/2009 (H1N1)", "assay": "Electrochemical assay using the printed electrodes", "type": "biochemical, Influenza A virus", "details": "100 μL virus + 100 μL PBS buffer with SG1, 1 hour, 37° C.; 20 μL tested"}, "[18]": {"tested_on": "N2 NA (strain A/Babol/36/2005)", "assay": "Electrochemical assay, 3 electrode system: SG1 cleavage and drug susceptibility", "type": "biochemical, influenza virus", "details": "SG1 0.5 mM, 2 hours, 23° C., PBS buffer"}, "[19]": {"tested_on": "A/Wisconsin/15/2009 (H3N2)", "assay": "Electrochemical assay using the printed electrodes", "type": "biochemical, Influenza A virus", "details": "100 μL virus + 100 μL PBS buffer with SG1, 1 hour, 37° C.; 20 μL tested"}, "[20]": {"tested_on": "A/New Caledonia/20/1999 (H1N1)", "assay": "Electrochemical assay using the printed electrodes", "type": "biochemical, Influenza A virus"}, "[21]": {"details": "0.5 mM SG1, compared with one hour for most strains"}, "[22]": {"details": "100 μL virus + 100 μL PBS buffer with SG1, 1 hour, 37° C., 20 μL tested"}}, "note": "“Also recorded” adds a separate entry of the source.", "data": [{"smiles": "CC(=O)N[C@H]1[C@H]([C@H](O)[C@H](O)CO)O[C@@](OC[C@H]2OC(O)[C@H](O)[C@@H](O)[C@@H]2O)(C(=O)O)C[C@@H]1O", "note": "(stereo partly drawn) [SG1, 5-acetamido-3,5-dideoxy-D-glycero-α-D-galacto-non-2-ulopyranosylonate-(2→6)-α,β-D-gluco pyranoside]", "values": [{"measurement": "Electrochemical assay (current)", "setting": "[1]", "result": "98.9 ± 5.7 ×10^−8 A"}, {"measurement": "Electrochemical assay (current)", "setting": "[2]", "result": "74.4 ± 5.6 ×10^−8 A"}, {"measurement": "Electrochemical assay (current)", "setting": "[3]", "result": "94.5 ± 2.3 ×10^−8 A"}, {"measurement": "Electrochemical assay (current)", "setting": "[4]", "result": "3.6 ± 2.2 ×10^−8 A"}, {"measurement": "Electrochemical assay (current)", "setting": "[5]", "result": "132.4 ± 6.3 ×10^−8 A"}, {"measurement": "Electrochemical assay (current)", "setting": "[6]", "result": "79.7 ± 5.0 ×10^−8 A"}, {"measurement": "Electrochemical assay (current)", "setting": "A/Sydney/5/1997 (H3N2)", "result": "115.7 ± 4.3 ×10^−8 A"}, {"measurement": "Electrochemical assay (current)", "setting": "[7]", "result": "118.1 ± 11.6 ×10^−8 A"}, {"measurement": "Electrochemical assay (current)", "setting": "A/HongKong/8/1968 (H3N2)", "result": "64.4 ± 5.2 ×10^−8 A"}, {"measurement": "cleavage of SG1 / glucose release", "setting": "H3N2 A/Aichi/2/1968", "result": "cleave SG1, releasing glucose; also recorded: Glucose was released"}, {"measurement": "cleavage of SG1 / glucose release", "setting": "[8]", "result": "cleaves SG1 to release glucose"}, {"measurement": "glucose release in the absence of enzymes", "setting": "[9]", "result": "no glucose released"}, {"measurement": "Electrochemical assay (current)", "setting": "[10]", "result": "99.5 ± 4.4 ×10^−8 A"}, {"measurement": "cleavage of SG1 / glucose release", "setting": "H3N2 A/HongKong/8/68", "result": "cleave SG1, releasing glucose; also recorded: Glucose was released"}, {"measurement": "cleavage of SG1 / glucose release", "setting": "[11]", "result": "complete cleavage; also recorded: Glucose was released"}, {"measurement": "Electrochemical assay (current)", "setting": "[12]", "result": "15.1 + 2.8 ×10^−8 A"}, {"measurement": "matrix effect on cleavage of SG1", "setting": "H1N1 A/Brisbane/59/2007", "result": "does not affect the cleavage"}, {"measurement": "cleavage of SG1 / glucose release", "setting": "H1N1 A/Brisbane/59/2007; 100 μL UV inactivated virus, 1 hour", "result": "cleave SG1, releasing glucose; also recorded: Glucose was released"}, {"measurement": "Electrochemical assay (current)", "setting": "[13]", "result": "91.7 ± 9.7 ×10^−8 A"}, {"measurement": "Electrochemical assay (current)", "setting": "[14]", "result": "13.4 ± 2.0 ×10^−8 A"}, {"measurement": "Electrochemical assay (current)", "setting": "[15]", "result": "13.4 + 1.5 ×10^−8 A"}, {"measurement": "time to completely cleave SG1", "setting": "A/Aichi/2/1968 (H1N1); [21]", "result": "require longer time to completely cleave SG1"}, {"measurement": "Electrochemical assay (current)", "setting": "A/Aichi/2/1968 (H1N1); [22]", "result": "31.3 ± 5.3 ×10^−8 A"}, {"measurement": "Electrochemical assay (current)", "setting": "[16]", "result": "106.2 ± 5.1 ×10^−8 A"}, {"measurement": "Electrochemical assay (current)", "setting": "[17]", "result": "108.5 ± 12.0 ×10^−8 A"}, {"measurement": "cleavage of SG1 / glucose release", "setting": "[18]", "result": "complete cleavage; also recorded: Glucose was released"}, {"measurement": "Electrochemical assay (current)", "setting": "[19]", "result": "107.8 ± 5.9 ×10^−8 A"}, {"measurement": "time to completely cleave SG1", "setting": "[20]; [21]", "result": "require longer time to completely cleave SG1"}, {"measurement": "Electrochemical assay (current)", "setting": "[20]; [22]", "result": "17.7 ± 2.6 ×10^−8 A"}]}]}
